Laboratory results: patent EP4631931A1, “HDAC INHIBITOR AND USE THEREOF” (Wigen Biomedicine Technology (Shanghai) Co., Ltd., priority 2022, dated 2024)

What was measured:
[1] = molecular target: T1, HDAC10 (Homo sapiens, UniProt Q969S8); test: HDAC enzyme inhibition, fluorometric assay; format: biochemical; conditions: read-out: Inhibitory activity against HDAC10 (IC50)
T1 sequence (Q969S8 1-669): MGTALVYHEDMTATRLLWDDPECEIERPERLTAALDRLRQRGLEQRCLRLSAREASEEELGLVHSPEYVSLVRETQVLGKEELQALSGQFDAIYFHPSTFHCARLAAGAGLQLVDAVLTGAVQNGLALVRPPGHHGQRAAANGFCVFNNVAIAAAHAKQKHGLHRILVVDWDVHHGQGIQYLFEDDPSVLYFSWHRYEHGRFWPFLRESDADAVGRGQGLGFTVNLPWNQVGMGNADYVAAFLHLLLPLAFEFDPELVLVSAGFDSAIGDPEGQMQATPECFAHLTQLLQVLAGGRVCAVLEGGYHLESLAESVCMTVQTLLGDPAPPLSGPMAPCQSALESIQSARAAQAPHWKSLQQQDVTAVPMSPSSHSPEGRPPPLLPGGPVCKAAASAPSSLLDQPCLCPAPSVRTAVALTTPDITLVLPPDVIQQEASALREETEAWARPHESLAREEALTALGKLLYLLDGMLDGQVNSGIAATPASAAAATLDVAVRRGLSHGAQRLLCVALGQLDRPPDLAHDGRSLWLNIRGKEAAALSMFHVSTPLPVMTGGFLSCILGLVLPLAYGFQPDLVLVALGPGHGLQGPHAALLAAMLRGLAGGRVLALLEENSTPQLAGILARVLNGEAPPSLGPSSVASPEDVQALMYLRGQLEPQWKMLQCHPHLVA
Protocol: Serially diluted DMSO sample solutions were added to the reaction wells, enzymes were added to a 384-well plate, and a reaction buffer was added to the control wells. The plate was incubated at room temperature for 15 min. After the fluorogenic substrate solution was added, the reaction was started. Fluorescence intensity readings (excitation: 355 nm, emission: 460 nm) were recorded every minute for 60 min using a Paradigm detector, and the slope values were calculated. Inhibition rate (%) = (maximum value - sample value)/(maximum value - minimum value) × 100%. The IC50 values were obtained by fitting a curve using the equation: Y = Bottom + (Top - Bottom)/(1 + (IC50/X)^HillSlope), where Y represents the inhibition rate and X represents the concentration of the compound. Table 10. Inhibitory activity of compound of the present disclosure against HDAC1, HDAC2, HDAC3, and HDAC10 (IC50, nM)

[2] = test system: Mouse colon cancer MC38 cells; test: In vivo efficacy in MC-38 model; set-up: species or system C57BL6N mice; conditions: small molecules 15mg/kg PO QD, PD-1 1mg/kg IV QW, BDO 2mg/kg IP QW, 21 days; for TGI(%): 6 mice per group
Protocol: (§1) Female C57BL6N mice (aged 6 weeks, 18-22 g) were provided by Vital River Laboratory Animal Technology Co., Ltd. (China) and used one week after quarantine and acclimation. All animals were kept in a room at 23±2 °C with a relative humidity of 50±5%, artificial lighting was provided from 08:00 to 20:00 every day, and the air was exchanged 13-18 times per hour. Mouse colon cancer MC38 cells were cultured conventionally in 1640 medium containing 10% fetal bovine serum in an incubator at 37 °C with 5% CO2. After being subcultured, the cells were collected when they reached the desired amount. The C57BL6N mice were subcutaneously injected with 2 × 10^6 MC38 cells on the right side to form tumors. After the tumors grew to about 100 mm^3, the animals were randomly grouped for administration. Tumor volumes were measured with a caliper on day 3, day 7, day 10, day 14, day 17, and day 21 after the administration. […] The toxicity of the compounds was evaluated according to the body weight and state of the mice.
Table 15. In vivo efficacy of some of the compounds of the present disclosure in MC-38 model

[3] = Stability in liver microsomes; format: in vitro ADME; conditions: 1 µM compound, NADPH, 37 °C
Protocol: After the 1 µM compound was incubated with 0.5 mg/mL of human or mouse liver microsomes and an NADPH regeneration system at 37 °C for different times, respectively, LC-MS-MS was used to analyze the remaining amount of the compound and calculate T1/2. Table 12. Evaluation results of stability of compounds of the present disclosure in human and mouse liver microsomes

[4] = test system: 293T cell; test: Inhibition of 293T cell proliferation (CTG, intracellular ATP); format: cell-based; conditions: Homo sapiens, HEK-293T, 72 h, compared to DMSO group, read-out: Inhibitory activity against 293T cell proliferation (IC50)
Protocol: Jurkat or 293T cells were seeded into a 96-well plate at 3000 cells/well. After overnight adherence culture, the serially diluted compound in DMSO was added. After 72 h, the intracellular ATP level was determined by CTG. The IC50 for the inhibition of cell proliferation by the compounds was calculated compared to the DMSO group. Table 8. Inhibitory activity of compounds of the present disclosure against Jurkat/293T cell proliferation (IC50, µM)

[5] = test system: OVCAR 3 cells; test: NK cell-mediated tumor cell killing (NK92 cells, GFP count); format: cell-based; conditions: Homo sapiens, 72 h compound, 1-4 h co-culture, compared to DMSO group, read-out: EC50 in promoting the NK92 cell-mediated OVCAR 3 cell death
Protocol: OVCAR 3 cells […] expressing GFP were seeded into a 96-well plate at 4000 cells/well. After overnight adherence culture, the serially diluted compounds were added, and the plate was incubated for another 72 h. After the two types of cells were mixed and cultured for another 1-4 h, NK92 cells were removed by washing with PBS, and adherent GFP-positive tumor cells were counted. The EC50 of the compounds in promoting the NK92 cell-mediated OVCAR 3 cell death was calculated compared to the DMSO group. Table 11. NK cell-mediated tumor cell killing by compounds of the present disclosure

[6] = test system: Mouse colon cancer CT-26 cells; test: In vivo efficacy in CT-26 model; set-up: species or system BALB/c mice; conditions: small molecules 15mg/kg PO QD, PD-1 1mg/kg IV QW, BDO 2mg/kg IP QW, 21 days; for TGI(%): 6 mice per group
Protocol: as §1, with “BALB/c” for “C57BL6N”, “CT-26” for “MC38”, “10^5 CT-26” for “10^6 MC38”
Table 16. In vivo efficacy of some of the compounds of the present disclosure in CT-26 model

[7] = Human liver microsomes 0.5 mg/mL
[8] = Mouse liver microsomes 0.5 mg/mL

IC50 [1] [nM]	CLint scaled at 1 µM [3, 7] [mL/min/kg]	Clliver [3, 7] [mL/min/kg]	half-life at 1 µM [3, 7] [min]	CLint scaled at 1 µM [3, 8] [mL/min/kg]	Clliver [3, 8] [mL/min/kg]	half-life at 1 µM [3, 8] [min]	Structure (SMILES)	Change in body weight [2]	TGI(%) [2] [%]	IC50 [4] [nM]	EC50 [5] [nM]	Change in body weight [6]	TGI(%) [6] [%]
127	7.95	5.74	219	231	64.79	23.6	[2H]c1cc(C(=O)Nc2ccc(F)cc2N)ccc1CNC(=O)/C=C/c1cccnc1 [Compound 5, (E)-N-(2-amino-4-fluorophenyl)-4-((3-(pyridin-3-yl)acrylamido)methyl)-3-d benzamide]	+24.2%	12.2	> 10000	33.7	+24.2%	12.2
318	20.9	10.41	83	222	64.04	24.6	Nc1cc(F)ccc1NC(=O)c1ccc(CNC(=O)/C=C/c2cccnc2)cc1 [Chidamide, reference compound]	+21.1%	8.9	6710	161	+21.1%	8.9
